One may read the inhibition as the share of the control response that was lost under treatment. As usually defined, the Inhibition is the change of the read-out against control, counted positive when it falls.

We go through 29 compounds from patent publication US10350228B2, “Treatment of sickle cell disease and inflammatory conditions” (Seattle Genetics, Inc., priority 2012, dated 2019).

Where two headings read alike, the source gives them in different places.

The test system of test [1] is antibody core fucosylation. As to the kind of experiment: Inhibition of antibody core fucosylation by fucose analogs. It is filed as cell-based. The source says:
Methods of determining whether a fucose analog is capable of having an effect on antibody core fucosylation is provided in WO 2012/019165.

The next test has as its system NF-κB phospho-p65. Kind of test: Western blot of NF-κB phospho-p65 in liver nuclear extracts of sickle cell mice. It is filed as in vivo, NY1DD sickle cell mice. As to conditions: heme-treated mice. How it is done:
NY1DD sickle cell mice were given plain water or 20 or 100 mM 2-fluorofucose in their drinking water ad libitum for 7 days. The treatment and control group had four mice per treatment group. On day 7, the mice were sacrificed with CO2. An EDTA blood sample was collected from the heart and the liver was removed and frozen in liquid nitrogen. Total white blood cell counts and differentials were performed by manual counting using a hemocytometer and Wright-stained blood smears, respectively. Nuclear extracts were prepared from nuclei isolated from liver homogenates. Western blots of the nuclear extracts were immunostained with antibodies to NF-κB phospho-p65 a marker of NF-κB activation.
(Immunoblotting shows a protein as a band on a membrane.)

Where [2] appears, read: Table 2, 50 μM analog, read-out: Inhibition at 50 μM.
Setting [3] is: Table 1, 50 μM analog, read-out: Inhibition at 50 μM.

Take 2-deoxy-2-fluorofucose diacetate: in test [1] (Table 2, 50 μM analog), the “inhibition at 50 µM” value is reported as above 80%. Further, the “Inhibition at 1 mM” value in test [1] (Table 2, 1 mM analog) is above 80%. Regarding 2-deoxy-2-fluorofucose peracetate, in test [1] (Table 2, 50 μM analog), the “inhibition at 50 µM” value was above 80%. In addition, the “Inhibition at 1 mM” value in test [1] (Table 2, 1 mM analog) is listed as above 80%.

On to 5-Benzyloxy fucose peracetate, for which the “inhibition at 50 µM” value in test [1] (Table 2, 50 μM analog) amounted to 0%. The “Inhibition at 1 mM” value in test [1] (Table 2, 1 mM analog) came out at 75%.

With `CC(=O)OC1C(C)OC(F)C(F)C1OC(C)=O` (stereo not shown) [1,2-difluoro-1,2-didexoy fucose peracetate], the “inhibition at 50 µM” value in test [1] (Table 2, 50 μM analog) is on record as above 80%. Further, the “Inhibition at 1 mM” value in test [1] (Table 2, 1 mM analog) was above 80%.

Take `C#C[C@H](OC(C)=O)[C@H]1OC(OC)[C@@H](OC(C)=O)[C@@H]1OC(C)=O` (stereo partly shown) [1-methyl-2,3,4-triacetyl alkynyl fucose]: the “inhibition at 50 µM” value in test [1] (Table 1, 50 μM analog) was 68%. The “Inhibition at 1 mM” value in test [1] (Table 1, 1 mM analog) is above 80%. In the case of `CC(=O)OC1O[C@@H](C)[C@@H](OC(C)=O)[C@@H](OC(C)=O)C1(F)F` (stereo partly drawn) [2-deoxy-2,2-difluorofucopyranose triacetate (beta)], the “inhibition at 50 µM” value in test [1] (Table 2, 50 μM analog) came out at 0%. For the same compound, in test [1] (Table 2, 1 mM analog), the “Inhibition at 1 mM” value came out at 75%. On to `CC(=O)OC1O[C@@H](C)[C@@H](OC(C)=O)[C@@H](OC(C)=O)C1(F)F` (stereo partly shown) [2-deoxy-2,2-difluorofucopyranose triacetate], for which, in test [1] (setting [2]), the inhibition at 50 µM came to 0%. The inhibition at 1000 µM in test [1] (Table 2, 1 mM analog) was determined as 64%. As for `CC(=O)OC(C#N)[C@H]1OC(OC(C)=O)[C@@H](OC(C)=O)[C@@H]1OC(C)=O` (stereo partly shown) [5-cyanoarabinofuranose tetraacetate], in test [1] (setting [3]), the inhibition at 50 µM lay within 5 to 10%. For `CC(=O)OC1OC(C#N)[C@@H](OC(C)=O)[C@@H](OC(C)=O)[C@@H]1OC(C)=O` (stereo partly shown) [5-cyanoarabinopyranose tetraacetate], the inhibition at 50 µM in test [1] (setting [3]) came out at 20%. `CC(=O)OC1O[C@@H]([C@]2(C)CO2)[C@@H](OC(C)=O)[C@@H](OC(C)=O)[C@@H]1OC(C)=O` (stereo partly drawn) [5-methyloxiran-arabinose tetraacetate, (3S,4R,5S,6R)-6-((S)-2-methyloxiran-2-yl)-tetrahydro-2H-pyran-2,3,4,5-tetrayl tetraacetate]: the inhibition at 50 µM in test [1] (setting [3]) was around 0%. The compound also yielded an inhibition at 1000 µM in test [1] (Table 1, 1 mM analog) of 35 to 40%. In the case of `CC#CC(OC(C)=O)[C@@H](OC(C)=O)[C@@H](OC(C)=O)[C@@H](C=O)OC(C)=O` (stereo partly shown) [5-propynyl fucose tetraacetate, 5-propynylarabinose tetraacetate], the inhibition at 50 µM in test [1] (setting [3]) amounted to 50%. The compound further gave an inhibition at 1000 µM in test [1] (Table 1, 1 mM analog) above 80%. As to `C=CC1OC(OC(C)=O)C(OC(C)=O)C(OC(C)=O)C1OC(C)=O` (stereo not shown) [5-vinyl fucose tetraacetate, 5-ethylenylarabinose tetraacetate], the “inhibition at 50 µM” value in test [1] (Table 1, 50 μM analog) is listed as around 0%. The “Inhibition at 1 mM” value in test [1] (Table 1, 1 mM analog) is around 4%. In the case of `CC(=O)O[C@H]([C@H](OC(C)=O)[C@@H](OC(C)=O)C(F)F)[C@@H](C=O)OC(C)=O` [6,6-difluorofucose tetraacetate], the inhibition at 50 µM in test [1] (setting [2]) was above 80%. The compound further displayed an inhibition at 1000 µM in test [1] (Table 2, 1 mM analog) above 80%.

On to `CC(=O)O[C@H]([C@H](OC(C)=O)[C@H](CBr)OC(C)=O)[C@@H](C=O)OC(C)=O` [6-bromo-fucose tetraacetate, 6-bromofucose tetraacetate], for which the inhibition at 50 µM in test [1] (setting [3]) is 50%. The inhibition at 1000 µM in test [1] (Table 1, 1 mM analog) is 80%.

Regarding `CC(=O)O[C@H]([C@H](OC(C)=O)[C@H](CCl)OC(C)=O)[C@@H](C=O)OC(C)=O` [6-chloro-fucose tetraacetate, 6-chlorofucose tetraacetate], the inhibition at 50 µM in test [1] (setting [3]) amounted to 20%. The compound further yielded an inhibition at 1000 µM in test [1] (Table 1, 1 mM analog) of 20 to 30%. Turning to `CC(=O)O[C@H]([C@H](OC(C)=O)[C@H](CC#N)OC(C)=O)[C@@H](C=O)OC(C)=O` [6-cyano fucose tetraacetate, 6-cyanofucose tetraacetate], in test [1] (setting [3]), the inhibition at 50 µM worked out at 30%. In addition, the inhibition at 1000 µM in test [1] (Table 1, 1 mM analog) is above 80%. On the same counts, the results for `CC(=O)O[C@H]([C@H](OC(C)=O)[C@H](CI)OC(C)=O)[C@@H](C=O)OC(C)=O` [6-iodo-fucose tetraacetate, 6-iodofucose tetraacetate] are 3% and 30%. As for `CC(=O)OC1CC(OC(C)=O)C(OC(C)=O)C(C)O1` (stereo not shown) [6-methyl-tetrahydro-2H-pyran-2,4,5-triyl triacetate], in test [1] (setting [2]), the inhibition at 50 µM amounted to 0%. Moreover, 1000 µM produced 36% inhibition in test [1] (Table 2, 1 mM analog). Turning to `C#CC1OC(OC(=O)C(C)(C)C)C(OC(=O)C(C)(C)C)C(OC(=O)C(C)(C)C)C1O` (stereo not shown) [Alkynyl fucose 1,2,3-(trimethylacetate), 5-ethynylarabinose 1,2,3-(trimethylacetate)], in test [1] (Table 1, 50 μM analog), the “inhibition at 50 µM” value is around 0%. On to `C#CC1OC(OC(=O)C(C)(C)C)C(O)C(OC(=O)C(C)(C)C)C1O` (stereo not shown) [Alkynyl fucose di(trimethylacetate), 5-ethynylarabinose 1,3-(trimethylacetate)], for which the “inhibition at 50 µM” value in test [1] (Table 1, 50 μM analog) is above 80%. Turning to `C#CC(OC(C)=O)[C@@H](OC(C)=O)[C@@H](OC(C)=O)[C@@H](C=O)OC(C)=O` (stereo partly shown) [Alkynyl fucose peracetate, 5-ethynylarabinose tetraacetate], the inhibition at 50 µM in test [1] (setting [3]) was above 80%. The same compound came in with an inhibition at 1000 µM in test [1] (Table 1, 1 mM analog) above 80%. As for `C#C[C@@H]1OC(OC(=O)C(C)C)[C@@H](OC(=O)C(C)C)[C@H](OC(=O)C(C)C)[C@@H]1OC(=O)C(C)C` (stereo partly shown) [Alkynyl fucose perisobutanoate], the “inhibition at 50 µM” value in test [1] (Table 1, 50 μM analog) was above 80%. In addition, the “Inhibition at 1 mM” value in test [1] (Table 1, 1 mM analog) is above 80%.

As for `C#C[C@H]1OC(OC(=O)c2ccncc2)[C@@H](OC(=O)c2ccncc2)[C@H](OC(=O)c2ccncc2)[C@@H]1OC(=O)c1ccncc1` (stereo partly shown) [Alkynyl fucose perisonicotinate], the “inhibition at 50 µM” value in test [1] (Table 1, 50 μM analog) is recorded as above 80%. Besides, the “Inhibition at 1 mM” value in test [1] (Table 1, 1 mM analog) is given as above 80%. As to `C#CC1OC(OC(=O)c2cccnc2)C(OC(=O)c2cccnc2)C(OC(=O)c2cccnc2)C1OC(=O)c1cccnc1` (stereo not shown) [Alkynyl fucose pernicotinate], the “inhibition at 50 µM” value in test [1] (Table 1, 50 μM analog) is given as above 80%. Besides, in test [1] (Table 1, 1 mM analog), the “Inhibition at 1 mM” value was above 80%. On to `C#CC(OC(=O)CCCCC)[C@@H](OC(=O)CCCCC)[C@@H](OC(=O)CCCCC)[C@@H](C=O)OC(=O)CCCCC` (stereo partly shown) [Alkynyl fucose tetra-n-hexanoate, 5-ethynylarabinose tetrahexanoate], for which the inhibition at 50 µM in test [1] (setting [3]) is above 80%. Moreover, in test [1] (Table 1, 1 mM analog), the inhibition at 1000 µM is above 80%. As to `C#C[C@@H]1OC(OC(=O)CC)[C@@H](OC(=O)CC)[C@H](OC(=O)CC)[C@@H]1OC(=O)CC` (stereo partly shown) [Alkynyl fucose tetrapropanonate, 5-ethynylarabinose tetrapropropanoate], the “inhibition at 50 µM” value in test [1] (Table 1, 50 μM analog) is above 80%. In test [1] (Table 1, 1 mM analog), the “Inhibition at 1 mM” value is above 80%. As to `C#CC(O)[C@@H](O)[C@@H](O)[C@H](O)C=O` (stereo partly shown) [Alkynyl fucose, 5-ethynylarabinose], the inhibition at 50 µM in test [1] (setting [3]) was above 80%. `C#CC[C@@H]1OC(OC(C)=O)[C@@H](OC(C)=O)[C@H](OC(C)=O)[C@@H]1OC(C)=O` (stereo partly drawn) [propargyl fucose tetraacetate, (3S,4R,5R,6S)-6-(prop-2-ynyl)-tetrahydro-2H-pyran-2,3,4,5-tetrayl tetraacetate]: the inhibition at 50 µM in test [1] (setting [3]) is around 10%. Further, the inhibition at 1000 µM in test [1] (Table 1, 1 mM analog) lay within 10 to 20%. For the compound hemin [heme, reference compound], the “Nuclear NF-κB phospho-p65 in liver” value with NF-κB phospho-p65 was “markedly decreased”.
